Source: ChEMBL document CHEMBL1127835, “Structure-activity relationships of N6-benzyladenosine-5'-uronamides as A3-selective adenosine agonists” (J Med Chem, 1994)

Legend:
[1] = Ratio of binding affinities for A2 receptor compared to that of A3 receptor
[2] = molecular target: Adenosine A2 receptor (Rattus norvegicus, UniProt P29276+P30543)
Description: Binding affinity for A2-adenosine receptor by the displacement of specific [3H]-CGS- binding in rat striatal membranes was determined

[3] = molecular target: T1, Adenosine receptor A1 (Rattus norvegicus, UniProt P25099); assay: biochemical
T1 sequence (P25099 whole entry): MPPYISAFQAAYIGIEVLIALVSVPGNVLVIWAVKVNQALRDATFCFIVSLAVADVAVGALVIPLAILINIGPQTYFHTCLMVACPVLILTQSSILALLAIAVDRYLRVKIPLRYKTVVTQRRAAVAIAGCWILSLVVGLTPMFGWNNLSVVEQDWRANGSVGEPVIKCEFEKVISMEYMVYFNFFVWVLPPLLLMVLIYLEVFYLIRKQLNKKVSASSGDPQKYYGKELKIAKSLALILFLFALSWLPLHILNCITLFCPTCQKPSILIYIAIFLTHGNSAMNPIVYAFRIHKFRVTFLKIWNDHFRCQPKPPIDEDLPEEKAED
Description: Binding affinity for A1-adenosine receptor by the displacement of specific [3H]-PIA binding in rat brain was determined

[4] = molecular target: T2, Adenosine receptor A3 (Rattus norvegicus, UniProt P28647)
T2 sequence (P28647 whole entry): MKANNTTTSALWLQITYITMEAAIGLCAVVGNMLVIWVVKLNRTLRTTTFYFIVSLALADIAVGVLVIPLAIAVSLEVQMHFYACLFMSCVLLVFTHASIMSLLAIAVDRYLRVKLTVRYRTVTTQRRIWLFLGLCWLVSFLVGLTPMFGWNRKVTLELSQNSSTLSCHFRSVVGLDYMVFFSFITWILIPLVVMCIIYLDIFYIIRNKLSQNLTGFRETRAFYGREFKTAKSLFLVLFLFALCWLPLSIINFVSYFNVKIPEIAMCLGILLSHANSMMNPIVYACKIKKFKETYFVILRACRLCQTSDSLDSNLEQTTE
Description: Binding affinity for recombinant rat A3-adenosine receptor by the displacement of specific [125I]APNEA or [125I]-N6-(4-amino-3-iodobenzyl)-adenosine-5'-N-methyluronamide

[5] = molecular target: T3, Adenosine A2 receptor (Rattus norvegicus) (UniProt P29276+P30543); conditions: Brain, 10e-5 nM
Description: Percentage inhibition against [3H]-CGS- 21680 binding to A1-adenosine receptor in rat brain at 10e-5 nM

[6] = molecular target: T4, Adenosine receptor A1 (Rattus norvegicus) (UniProt P25099); conditions: Brain, 10e-5 nM
T4 sequence (whole entry): T1 sequence (P25099 whole entry)

[7] = molecular target: T2, Adenosine receptor A3; assay: biochemical
Description: Binding affinity for rat A3-adenosine receptor expressed in chinese hamster ovarian cells (assayed by the displacement of specific [125I]-N6-(4-amino-3-iodobenzyl)-adenosine-5''-N-methyluronamide)

[8] = molecular target: T4, Adenosine receptor A1 (Rattus norvegicus); assay: Percentage inhibition against [3H]PIA binding to A1-adenosine receptor in rat brain at 10e-5 nM; assay type: tissue-based
[9] = molecular target: T3, Adenosine A2 receptor (Rattus norvegicus); assay: Percentage inhibition of [3H]-CGS- 21680 binding to […] receptor in rat brain at 10e-5 nM; assay type: tissue-based
[10] = molecular target: T3, Adenosine A2 receptor (Rattus norvegicus); assay: Percentage inhibition against [3H]-CGS- 21680 binding to A2-adenosine receptor in rat brain at 1xe-4 nM; assay type: tissue-based
[11] = molecular target: T4, Adenosine receptor A1 (Rattus norvegicus); assay: Percentage inhibition against [3H]PIA binding to A1-adenosine receptor in rat brain at 1xe-4 nM; assay type: tissue-based
[12] = molecular target: T3, Adenosine A2 receptor (Rattus norvegicus); assay: Percentage inhibition of [3H]-CGS- 21680 binding to […] receptor in rat brain at 10e-4 nM; assay type: tissue-based
[13] = molecular target: T4, Adenosine receptor A1 (Rattus norvegicus); assay: Percentage inhibition against [3H]-PIA binding to A1-adenosine receptor in rat brain at 10e-4 nM; assay type: tissue-based

| Structure (SMILES) | Ratio [1] | Ki [2] [µM] | Ki [3] [µM] | other results |
| --- | --- | --- | --- | --- |
| CCNC(=O)[C@H]1O[C@@H](n2cnc3c(NCc4cccc([N+](=O)[O-])c4)ncnc32)[C@H](O)[C@@H]1O | 4 | 0.035 |  |  |
| NC(=O)[C@H]1OC(n2cnc3c(N)ncnc32)[C@H](O)[C@@H]1O (stereo partly specified) | 0.085 | 0.12 | 0.0726 | Ki [4]: 1.41 µM |
| NCCNC(=O)[C@H]1O[C@@H](n2cnc3c(N)ncnc32)[C@H](O)[C@@H]1O | > 1 |  |  | inhibition [5]: 12.5%; inhibition [6]: 0% |
| CCNC(=O)[C@H]1OC(n2cnc3c(NCc4cccc(Br)c4)ncnc32)[C@H](O)[C@@H]1O (stereo partly specified) |  |  | 0.0109 | Ki [7]: 0.0028 µM |
| CCNC(=O)[C@H]1O[C@@H](n2cnc3c(N)[n+](Cc4ccc([N+](=O)[O-])cc4)cnc32)[C@H]([O-])[C@@H]1O | 3.2 | 0.19 | 0.341 | Ki [4]: 0.06 µM |
| CNC(=O)[C@H]1OC(n2cnc3c(NCc4cccc(N)c4)ncnc32)[C@H](O)[C@@H]1O (stereo partly specified) | 28 | 0.794 | 1 | Ki [7]: 0.028 µM |
| CCNC(=O)[C@H]1O[C@@H](n2cnc3c(NCc4cccc(C)c4)ncnc32)[C@H](O)[C@@H]1O | 15 | 0.0177 |  |  |
| CNC(=O)[C@H]1OC(n2cnc3c(NCc4ccc(Cl)cc4)ncnc32)[C@H](O)[C@@H]1O (stereo partly specified) | 160 | 2.73 | 0.478 | Ki [7]: 0.017 µM |
| CNC(=O)[C@H]1O[C@@H](n2cnc3c(NCc4cccc(Cl)c4)ncnc32)[C@H](O)[C@@H]1O | 25 | 0.559 | 0.916 | Ki [4]: 0.0219 µM |
| CNC(=O)[C@H]1OC(n2cnc3c(NCc4cccc(NC(C)=O)c4)ncnc32)[C@H](O)[C@@H]1O (stereo partly specified) | 24 | 0.988 | 2.97 | Ki [7]: 0.0414 µM |
| CCNC(=O)[C@H]1O[C@@H](n2cnc3c(NCc4cccc(F)c4)ncnc32)[C@H](O)[C@@H]1O | 3 | 0.032 |  |  |
| CNC(=O)[C@H]1O[C@@H](n2cnc3c(NCc4ccccc4)ncnc32)[C@H](O)[C@@H]1O | 37 | 0.597 |  |  |
| CNC(=O)[C@H]1O[C@@H](n2cnc3c(NCc4cccc(Br)c4)ncnc32)[C@H](O)[C@@H]1O | 34 | 0.064 |  | Ki [7]: 0.0019 µM |
| CNC(=O)[C@H]1OC(n2cnc3c(NCc4ccc(N)cc4)ncnc32)[C@H](O)[C@@H]1O (stereo partly specified) | 110 | 1.59 |  |  |
| CNC(=O)[C@H]1OC(n2cnc3c(NCc4cccc(S(=O)(=O)O)c4)ncnc32)[C@H](O)[C@@H]1O (stereo partly specified) | 6.9 | 9.07 | 19.6 | Ki [7]: 1.31 µM |
| CCNC(=O)[C@H]1OC(n2cnc3c(N)[n+]([O-])cnc32)[C@H](O)[C@@H]1O (stereo partly specified) | 0.22 | 0.101 | 0.154 | Ki [4]: 0.468 µM |
| CCNC(=O)[C@H]1O[C@@H](n2cnc3c(NCc4ccc([N+](=O)[O-])cc4)ncnc32)[C@H](O)[C@@H]1O | 64 |  |  |  |
| CC(C)(C)OC(=O)NCCNC(=O)[C@H]1O[C@@H](n2cnc3c(N)ncnc32)[C@H](O)[C@@H]1O | > 1 |  |  | inhibition [8]: 0%; inhibition [9]: 0% |
| CCNC(=O)[C@H]1OC(n2cnc3c(=O)[nH]cnc32)[C@H](O)[C@@H]1O (stereo partly specified) |  |  |  | Ki [4]: 5 µM |
| CNC(=O)[C@H]1OC(n2cnc3c(NCc4ccc(S(=O)(=O)O)cc4)ncnc32)[C@H](O)[C@@H]1O (stereo partly specified) | > 100 |  |  | inhibition [10]: 0%; inhibition [11]: 0%; Ki [7]: 4.5 µM |

| Structure (SMILES) | Ratio [1] | Ki [2] [µM] | Ki [3] [µM] | other results |
| --- | --- | --- | --- | --- |
| CNC(=O)[C@H]1OC(n2cnc3c(NCc4ccc(Br)cc4)ncnc32)[C@H](O)[C@@H]1O (stereo partly specified) | 200 | 2.46 | 0.516 | Ki [7]: 0.012 µM |
| CCNC(=O)[C@H]1O[C@@H](n2cnc3c(NCc4ccccc4[N+](=O)[O-])ncnc32)[C@H](O)[C@@H]1O | 8.6 | 0.024 |  |  |
| O=C(NC1CC1)[C@H]1OC(n2cnc3c(NCc4ccccc4)ncnc32)[C@H](O)[C@@H]1O (stereo partly specified) | 0.53 | 0.055 | 0.112 | Ki [4]: 0.103 µM |
| CNC(=O)[C@H]1O[C@@H](n2cnc3c(O)ncnc32)[C@H](O)[C@@H]1O | > 10 |  |  | inhibition [12]: 6.2%; inhibition [13]: 0% |
| CCNC(=O)[C@H]1O[C@@H](n2cnc3c(NCc4ccccc4)ncnc32)[C@H](O)[C@@H]1O | 14 | 0.095 |  |  |
| CCNC(=O)[C@H]1O[C@@H](n2cnc3c(NCc4ccc(OC)cc4)ncnc32)[C@H](O)[C@@H]1O | 55 | 0.609 |  |  |
| CNC(=O)[C@H]1O[C@@H](n2cnc3c(NCc4ccc(N)c(I)c4)ncnc32)[C@H](O)[C@@H]1O |  | 0.197 | 0.018 |  |
| CCNC(=O)[C@H]1O[C@@H](n2cnc3c(NCc4cccc(I)c4)ncnc32)[C@H](O)[C@@H]1O | 8.2 | 0.0072 |  |  |
| CNC(=O)[C@H]1OC(n2cnc3c(NCc4cccc(C(F)(F)F)c4)ncnc32)[C@H](O)[C@@H]1O (stereo partly specified) | 19 | 0.574 | 0.496 | Ki [7]: 0.031 µM |
| CCNC(=O)[C@H]1OC(n2cnc3c(O)ncnc32)[C@H](O)[C@@H]1O (stereo partly specified) | > 1 |  |  | inhibition [12]: 31%; inhibition [13]: 44% |
| CNC(=O)[C@H]1O[C@@H](n2cnc3c(NCc4cccc(C)c4)ncnc32)[C@H](O)[C@@H]1O | 42 | 0.415 |  |  |
| CCNC(=O)[C@H]1O[C@@H](n2cnc3c(NCc4cccc(Cl)c4)ncnc32)[C@H](O)[C@@H]1O | 17 | 0.019 |  |  |
| CNC(=O)[C@H]1OC(n2cnc3c(NCc4cccc([N+](=O)[O-])c4)ncnc32)[C@H](O)[C@@H]1O (stereo partly specified) | 23 | 0.441 | 0.735 | Ki [7]: 0.019 µM |
| CCNC(=O)[C@H]1OC(n2cnc3c(N[C@@H](C)c4ccccc4)ncnc32)[C@H](O)[C@@H]1O (stereo partly specified) | 3.3 | 1.65 | 0.065 | Ki [7]: 0.494 µM |
| CCNC(=O)[C@H]1O[C@@H](n2cnc3c(N[C@H](C)c4ccccc4)ncnc32)[C@H](O)[C@@H]1O | 14 | 0.259 |  |  |
| CCNC(=O)[C@H]1O[C@@H](n2cnc3c(N)[n+](Cc4ccccc4[N+](=O)[O-])cnc32)[C@H](O)[C@@H]1[O-] | 3.1 | 0.0835 | 0.196 | Ki [4]: 0.027 µM |
| NC(=O)[C@H]1O[C@@H](n2cnc3c(NCc4ccccc4)ncnc32)[C@H](O)[C@@H]1O | 1.7 | 0.423 |  |  |
| CCNC(=O)[C@H]1O[C@@H](n2cnc3c(NCc4cccc(OC)c4)ncnc32)[C@H](O)[C@@H]1O | 8.8 | 0.038 |  |  |
| CCNC(=O)[C@H]1O[C@@H](n2cnc3c(NCc4ccccc4OC)ncnc32)[C@H](O)[C@@H]1O | 3 | 0.021 |  |  |
